Test results published in article PMC10967730, “Identification and Functional Validation of Two Novel Antioxidant Peptides in Saffron” (Antioxidants, 2024).
Ends that are not written are not given here.

Experiments:
HepG2 cells = assay: MTT cell viability of HepG2 cells; conditions: for Effect on the viability of HepG2 cells: MTT, peptide 0.01–0.1 mg/mL
Description: The HepG2 cells were cultured in DMEM (Gibco, New York, NY, USA) containing 10% (v/v) fetal bovine serum (HyClone, Logan, UT, USA) and 1% (v/v) penicillin/streptomycin (Gibco, New York, NY, USA) at 37 °C and 5% CO2.
The cells were passaged every 2 days, with a passage ratio of 1:2 when the cells grew to more than 80% confluence. Then, the HepG2 cells were distributed in 96-well culture plates at a density of 2.5 × 10^4 cells per well. When the cells were cultured for 24 h in DMEM medium, the medium was removed and replaced with a new medium containing various concentrations of H2O2 (100 mM, 300 mM, 500 mM, 700 mM, 900 mM, and 1100 mM), and the control cells were grown in DMEM. MTT (3-(4,5-dimethylthiazol2-yl)-2,5-diphenyltetrazolium bromide; Sigma-Aldrich, St. Louis, MO, USA) was added to the wells and the cells were incubated for 2 h at 37 °C. Then, DMSO was added to the wells for dissolution of formazan granules produced by the live cells and the absorbance measurements were performed at 540 nm to ensure the half inhibitory concentration (IC50) of H2O2 [30].
The safe and harmless peptide concentrations were also determined by the above method. Different concentrations of peptides (0.01 mg/mL, 0.02 mg/mL, 0.04 mg/mL, 0.06 mg/mL, 0.08 mg/mL, and 0.1 mg/mL) also act on cells, and cell viability was detected by MTT to screen out the safe and harmless peptide concentrations.

[1] = cited from earlier work
Description: Subsequently, the ABTS method was utilized to determine the total antioxidant activity of the stigma protein. […] We screened 289 saffron antioxidant peptides by comparing with the BIOPEP database. Among them, the saffron peptides with high abundance in the range from tetrapeptide to decapeptide were selected. […] It has been reported that hydrophobic a ...

OO [H2O2]
Cell viability decline (HepG2 cells; HepG2, MTT, H2O2 300 mM): about 50%

N[C@@H](Cc1ccccc1)C(=O)O [Phe]
Concentration at which ABTS scavenging activity is shown [1]: 10^−3 mol/L

DGGSDYLGK [DGGSDYLGK]
Effect on the viability of HepG2 cells (HepG2 cells): no significant effects

VDPYFNK [VDPYFNK]
Effect on the viability of HepG2 cells (HepG2 cells): no significant effects
